In publication PMC9963659, “Novel 2-Thiouracil-5-Sulfonamide Derivatives: Design, Synthesis, Molecular Docking, and Biological Evaluation as Antioxidants with 15-LOX Inhibition” (Molecules, 2023):
Read-outs that look alike come from different tables or passages of the source.

Experiments:
[1] = Lipid peroxidation assay (FeCl2/H2O2-stimulated linoleic acid peroxidation); assay type: biochemical; details: mean ± SEM of three experiments
[2] = DPPH radical scavenging assay; assay type: biochemical; details: mean ± SEM of three experiments
Protocol: The antioxidant potential of all target compounds (3–9) was determined using DPPH radical scavenging assay in comparison with ascorbic acid (AA) as the control treatment.
The mechanism of antioxidants as DPPH radical scavengers is based on their hydrogen-donation ability as hydrogen atoms or an electron transfer from the compound to the DPPH to form DPPH-H. The results of DPPH reduction are presented in Table 2, Figure 7.
The DPPH scavenging activity of all novel synthesized compounds (3–9) was measured as previously described (see Supplementary Materials).
1-Biological Evaluation Details: a-In-vitro Assays for biological antioxidant Activity
- DPPH scavenging method.
A 96-well plate was filled with 100 µL of the investigated compounds at various concentrations (12.5, 25, 50, 100, and 200 µg/mL ). The plate was then incubated at room temperature for 30 min while being protected from light by adding 100 µL of 100µM DPPH methanolic solution to each well. At a λ517 nm. the solution's absorbance was measured.
The positive control was ascorbic acid, and the negative control was DMSO. According to the following equation, the percentage of DPPH scavenging activity was determined:
% of DPPH scavenging = [(A control -A sample) / A control] x100. where A control is the absorbance of the control reaction (with all reagents except the test compound), and A sample is the absorbance of the test sample. Linear regression analysis was performed to calculate drug concentration showing 50% free radical inhibition activity (IC50). All tests were performed in triplicates. […]

[3] = target: T1, Soybean 15-LOX enzyme (Glycine max, UniProt P08170); assay: In vitro 15-lipoxygenase inhibition (Cayman Lipoxygenase Inhibitor Screening Assay Kit); assay type: biochemical; details: for IC50: Soybean 15-LOX, arachidonic acid substrate, mean ± SEM of three experiments; for 15-LOX inhibitory activity relative to quercetin: fold that of quercetin
T1 construct: purchased Cayman Chemical 760700
T1 sequence (P08170 1-839): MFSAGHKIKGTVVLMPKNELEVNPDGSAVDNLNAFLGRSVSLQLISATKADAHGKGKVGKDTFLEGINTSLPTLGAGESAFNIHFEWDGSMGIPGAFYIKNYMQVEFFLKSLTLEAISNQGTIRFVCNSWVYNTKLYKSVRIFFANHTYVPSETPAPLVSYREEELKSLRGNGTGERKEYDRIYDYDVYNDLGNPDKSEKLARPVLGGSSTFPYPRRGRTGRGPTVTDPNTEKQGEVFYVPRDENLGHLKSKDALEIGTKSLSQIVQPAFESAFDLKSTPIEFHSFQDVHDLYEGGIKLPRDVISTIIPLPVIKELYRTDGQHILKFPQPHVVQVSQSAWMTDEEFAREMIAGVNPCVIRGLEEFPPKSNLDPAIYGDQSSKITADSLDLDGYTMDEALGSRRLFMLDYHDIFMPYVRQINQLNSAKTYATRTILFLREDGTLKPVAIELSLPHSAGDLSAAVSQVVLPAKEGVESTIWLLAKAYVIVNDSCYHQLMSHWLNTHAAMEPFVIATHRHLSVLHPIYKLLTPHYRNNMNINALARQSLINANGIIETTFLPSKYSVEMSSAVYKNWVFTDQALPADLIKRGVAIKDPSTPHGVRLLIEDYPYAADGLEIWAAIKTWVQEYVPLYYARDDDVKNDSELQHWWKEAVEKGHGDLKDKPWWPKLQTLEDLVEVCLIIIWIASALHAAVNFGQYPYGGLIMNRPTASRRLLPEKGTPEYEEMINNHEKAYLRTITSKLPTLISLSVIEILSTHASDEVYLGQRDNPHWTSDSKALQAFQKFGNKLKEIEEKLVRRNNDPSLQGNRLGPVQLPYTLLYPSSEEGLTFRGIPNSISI
Protocol: 90 µL of 15-LOX was pipetted into a 96-well plate quickly. The test chemical was then dissolved in DMSO in 10 µL portions at concentrations of 2.5 µM, 5.0 µM, and 10 µM and added to each well. Arachidonic acid, a 110 µL substrate, was added to start the reaction, and the plate was shaken for at least five minutes. In order to interrupt enzyme catalysis and advance the reaction, 100 µL of chromogen was added to each well and made in accordance with the manufacturer’s instructions. In blank wells, 100 µL of assay buffer (0.1 M Tris-HCl, pH 7.4) was utilized. […] The solution’s absorbance was determined at λ 490–500 nm. The percentage inhibition was calculated according to the following equation:% inhibition = [(IA − Ainhibitor sample)/IA] × 100(1) where (IA) is the 100% initial activity and (Ainhibitor sample) is the absorbance of the test sample. A dose-response curve was plotted between % inhibition and the drug concentration. The non-linear dose-response curve was used for calculating drug concentration showing 50% enzyme inhibition.

[4] = Hydrogen peroxide scavenging assay; assay type: biochemical; details: mean ± SEM of three experiments
Protocol: H2O2 assay is used to estimate the scavenging power of the target compounds (4–9) to H2O2.
The hydrogen peroxide (H2O2) scavenging activity of all novel synthesized compounds 3–9 was measured as previously reported (see Supplementary Materials).
1-Biological Evaluation Details: a-In-vitro Assays for biological antioxidant Activity […]
Linear regression analysis was performed to calculate drug concentration showing 50% free radical inhibition activity (IC50). All tests were performed in triplicates.
-Scavenging of hydrogen peroxide
In this method, the decay or loss of hydrogen peroxide can be quantified spectrophotometrically at 230 nm when a scavenger is incubated with it. The procedure was applied with a few changes. In phosphate buffered saline, hydrogen […]
peroxide (20 mM) solution was prepared in phosphate buffered saline (PBS, pH 7.4). In order to make different concentrations of 1 ml of the tested substances (3–9) or standards in methanol, 2 ml of hydrogen peroxide solution in PBS was added. After 10 minutes, the absorbance of H2O2 was measured at 230 nm in comparison to an ascorbic acid (AA) reference solution that contained phosphate buffer but no H2O2.
% of H2O2 scavenging = [(A control -A sample) / A control] x100. […]

[5] = set-up: method as in PMID 23248677; details: cited from earlier work
[6] = test system: human 15-LOX; details: cited from earlier work
[7] = test system: 15-LOX-1; set-up: method as in PMID 26560362; details: human; cited from earlier work
[8] = test system: 15-LOX-1; set-up: method as in PMID 26560362; details: cited from earlier work
[9] = test system: 15-LOX-1; set-up: method as in PMID 26560362; details: rabbit enzyme; cited from earlier work

Lipid Peroxidation IC50 [1] [µg/mL]	melting point [°C]	DPPH IC50 [2] [µg/mL]	IC50 [3] [µM]	H2O2 IC50 [4] [µg/mL]	Structure (SMILES)	also measured
22.0 ± 1.40	316 to 318	15.0 ± 1.25	2.9 ± 0.08	20.0 ± 1.40	O=c1[nH]c(=S)[nH]cc1S(=O)(=O)Nc1cccc(-c2csc(NN=Cc3cccc([N+](=O)[O-])c3)n2)c1 [Compound 9a, N-(3-{2-[(2E)-2(3-nitrobenzylidene)hydrazine]-1,3-thiazol-4-yl}phenyl)-4-oxo-thioxo-1,2,3,4-tetrahydropyrimidine-5-sulfonamides]	
21.0 ± 1.45	320 to 322	11.9 ± 1.40	1.8 ± 0.06	18.0 ± 0.72	O=c1[nH]c(=S)[nH]cc1S(=O)(=O)Nc1cccc(-c2csc(NN=Cc3cccc(Cl)c3)n2)c1 [Compound 9b, N-(3-{2-[(2E)-2(3-chlorobenzylidene)hydrazine]-1,3-thiazol-4-yl}phenyl)-4-oxo-thioxo-1,2,3,4-tetrahydropyrimidine-5-sulfonamides]	15-LOX inhibitory activity relative to quercetin [3]: 2.0 fold
20.5 ± 1.48	317 to 319	10.0 ± 0.83	1.95 ± 0.06	16.0 ± 1.20	O=c1[nH]c(=S)[nH]cc1S(=O)(=O)Nc1cccc(-c2csc(NN=Cc3cccc(F)c3)n2)c1 [Compound 9c, N-(3-{2-[(2E)-2(3-fluorobenzylidene)hydrazine]-1,3-thiazol-4-yl}phenyl)-4-oxo-thioxo-1,2,3,4-tetrahydropyrimidine-5-sulfonamides]	15-LOX inhibitory activity relative to quercetin [3]: 1.84 fold
20.0 ± 1.56	326 to 328	7.55 ± 1.70	2.5 ± 0.03	15.0 ± 0.89	Cc1cccc(C=NNc2nc(-c3cccc(NS(=O)(=O)c4c[nH]c(=S)[nH]c4=O)c3)cs2)c1 [Compound 9d, N-(3-{2-[(2E)-2(3-methylbenzylidene)hydrazine]-1,3-thiazol-4-yl}phenyl)-4-oxo-thioxo-1,2,3,4-tetrahydropyrimidine-5-sulfonamides]	
					CC1=C(C(=O)OC(C)C)C(c2ccco2)NC(=S)N1 (stereo not shown) [XII]	antioxidant activity IC50 [5]: 600 µg/mL
					COc1ccc(-c2cc3cc(F)c(F)cc3[nH]2)cc1NS(=O)(=O)c1cccs1 [XIV]	IC50 ([6]; read-out: 15-LOX IC50): 0.007 µM
					O=c1c2cnc(N3CCOCC3)nc2sn1CCN1CCCCC1 [XIX]	IC50 [7]: 0.12 µM
					c1csc(C2CSC(c3nc4ccccc4[nH]3)=N2)c1 (stereo not shown) [XVIII]	IC50 [8]: 0.096 µM
					COc1ccc(-c2cc3cc(F)c(F)cc3[nH]2)cc1NC(=S)Nc1cccc(C(=O)O)c1 [XVII]	IC50 [9]: 0.002 µM
					O=S(=O)(Nc1cccc(-c2nc3cccnc3[nH]2)c1)c1cccs1 [XVI]	IC50 ([6]; read-out: 15-LOX IC50): 10 µM
					CCCCCc1ccc(S(=O)(=O)NCCc2nc(-c3ccccc3)[nH]c2-c2ccc(OC)cc2)cc1 [XV]	IC50 ([6]; AA, read-out: 15-LOX IC50 (AA)): 0.05 µM; IC50 ([6]; LA, read-out: 15-LOX IC50 (LA)): 0.017 µM
					O=C(O)c1cc(O)c(O)c(O)c1 [gallic acid]	antioxidant activity IC50 [5]: 0.8 µg/mL
